Several values for one entry are separate records, joined by “and”; a condition that tells them apart may be missing. Equal entries are not always repeated. Each block holds one molecule with its values, some of them ahead of it.
Tests used:
[1] = target: T1, hGALK1 (Homo sapiens, UniProt P51570, E253A/K252A); experiment: Kinase-Glo luminescent hGALK1 activity assay; format: biochemical; design: Vmaxapp, substrate galactose, with ligand (+) / Kmapp, substrate galactose, with ligand (+): unit not given here; details: for mode of inhibition with respect to galactose: 0–250 μM galactose, best-fit model in GraphPad Prism; for Kmapp, substrate galactose, with ligand (+) / Vmaxapp, substrate galactose, with ligand (+): 35 µM ATP, maximum tested concentration: 1 mM T1, 15 mM fragment 3, 2 mM 11–13; for inhibition at 2000 µM: 2 mM compound; for Kinase-Glo LLEAT: calculated cumulatively over N1 and N2
T1 construct: A hGALK1 construct, encoding full-length protein harboring the surface entropy[41] mutations K252A:E253A; His6 (N); made in house; host or cells: E. coli BL21(DE3)
Method: hGALK1 activity in vitro was determined using the Kinase-Glo luminescent kinase assay (Promega), according to the manufacturer’s protocol. […] Following a 1-h RT incubation, 10 μL of Kinase-Glo Plus detection reagent was added (final assay volume: 20 μL/well), and after a further 20 minutes RT incubation, luminescence was detected using a Pherastar FSX plate reader (BMG Labtech) containing a luminescence optics module. […] All reactions were performed in technical triplicates for two different preparations of hGALK1.
Data were plotted using GraphPad Prism software; curve fitting was performed with a nonlinear least-squares regression fit to the mixed, competitive, noncompetitive, and uncompetitive inhibition models from the GraphPad Prism enzyme kinetics–inhibition equations and the best fit selected by comparison of Akaike’s Information Criterion (AICc) probability scores and extra sum-of-squares F test P values calculated by the software.

[2] = target: T1, hGALK1; experiment: Surface plasmon resonance (SPR) binding assay; details: hGALK1 immobilized on CM5 chip, analyte 0.195–200 μM, n = 1
Method: Purified hGALK1 (30 μg/mL), diluted in acetate buffer at pH 5, was attached via covalent coupling to a density of 13000 RU on a CM5 chip. The assay buffer was 50 mM sodium phosphate, pH 7.5, 200 mM NaCl, 0.5 mM TCEP, 5% DMSO, and 0.05% TWEEN20. A serial dilution (11 concentrations) was prepared in the above buffer for each analyte (3, 11–13) by 1:1 dilution from 200 μM to 0.195 μM, and the subsequent solutions were passed over the chip at a flow rate of 30 μL/min. Data are from an n = 1 experiment.

[3] = target: T1, hGALK1; experiment: Amplex Red fluorescence-based hGALK1 activity assay (coupled with galactose oxidase); format: biochemical; design: Vmaxapp, substrate ATP, with ligand (+) / Kmapp, substrate ATP, with ligand (+): unit not given here; details: for mode of inhibition with respect to ATP: 0–250 μM ATP, best-fit model in GraphPad Prism; for Kmapp, substrate ATP, with ligand (+) / Vmaxapp, substrate ATP, with ligand (+): 50 µM galactose, maximum tested concentration: 1 mM T1, 15 mM fragment 3, 2 mM 11–13; for inhibition at 2000 µM: 2 mM compound; for Amplex Red LLEAT: calculated cumulatively over N1 and N2
Description: Consequently, to confirm the mode of inhibition of the spiro-benzoxazole inhibitors with respect to ATP, we adopted the Amplex Red fluorescence-based assay[33],[34] by coupling the hGALK1 reaction with D. dendroides galactose oxidase (GAO; EC 1.1.3.9) to measure the level of galactose remaining after being depleted as a substrate for hGALK1. In this method, hydrogen peroxide generated by the oxidation of galactose by GAO is used by horseradish peroxidase to convert the nonfluorescent substrate Amplex Red into its highly fluorescent product resorufin; therefore, the resultant fluorescent signal is inversely proportional to hGALK1 enzyme activity. We optimized several parameters of this assay to allow measurement of hGALK1 activity for the first time (Figure S3; Supplementary Results).
The Amplex Red assay reagent contained horseradish peroxidase (EC 1.11.1.7, 0.2 U/mL), its substrate Amplex Red (10-acetyl-3,7-dihydroxyphenoxazine, 100 μM), and galactose oxidase (EC 1.1.3.9, 4 U/mL). The assay buffer used was the same as in the Kinase-Glo assay. […] Amplex Red reagent was added at a 1:1 volume to the hGALK1 reaction after 1-h incubation at RT. Fluorescence emission was measured at 585 nm, with excitation at 570 nm, after a further incubation period of 40 minutes, using a Pherastar FSX plate reader with a FI 540 590 optics module. Reactions were performed in technical triplicates for two biological replicates, and data were plotted and fitted as described for the Kinase-Glo assay except that the reaction rate, defined as total galactose consumed over the 1-h hGALK1 reaction, was determined using the following equation, where Fluorreaction = mean value of measured fluorescence of each reaction and Fluor50 = measured fluorescence with no galactose (i.e., fluorescence of 50 μM galactose): [drawing 2]

[4] = target: T2, hGALK2 (Homo sapiens, UniProt Q01415); experiment: Kinase-Glo hGALK2 activity assay; format: biochemical; details: 1 mM compound
T2 construct: Constructs encoding full-length hGALK2 (Met1-Ala458) and hMVK (Met1-Leu396); His6-Strep-Strep tag followed by TEV protease cleavage site (N); made in house; host or cells: E. coli BL21(DE3)
T2 sequence (Q01415 1-458): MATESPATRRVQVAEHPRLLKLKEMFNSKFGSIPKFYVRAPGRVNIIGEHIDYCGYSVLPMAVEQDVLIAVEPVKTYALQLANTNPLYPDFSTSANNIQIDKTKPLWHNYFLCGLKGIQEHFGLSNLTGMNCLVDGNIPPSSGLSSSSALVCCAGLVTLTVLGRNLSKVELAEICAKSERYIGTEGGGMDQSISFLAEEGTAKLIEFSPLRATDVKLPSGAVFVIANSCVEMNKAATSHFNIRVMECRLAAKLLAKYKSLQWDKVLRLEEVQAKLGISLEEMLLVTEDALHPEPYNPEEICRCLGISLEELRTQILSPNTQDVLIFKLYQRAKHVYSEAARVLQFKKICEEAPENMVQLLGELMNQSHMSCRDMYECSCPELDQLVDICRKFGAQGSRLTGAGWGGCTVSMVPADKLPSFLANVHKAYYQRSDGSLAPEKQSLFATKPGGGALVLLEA
Method: (§1) hGALK1 activity in vitro was determined using the Kinase-Glo luminescent kinase assay (Promega), according to the manufacturer’s protocol. […] Similarly, hGALK2 activity and inhibition was measured with reactions containing 50 nM hGALK2, 100 μM N-acetylgalactosamine, and 35 μM ATP in the above-described buffer and hMVK activity and inhibition was measured with reactions containing 250 nM hMVK, 100 μM mevalonate, and 35 μM ATP in the above-described buffer. Following a 1-h RT incubation, 10 μL of Kinase-Glo Plus detection reagent was added (final assay volume: 20 μL/well), and after a further 20 minutes RT incubation, luminescence was detected using a Pherastar FSX plate reader (BMG Labtech) containing a luminescence optics module. To determine the inhibition mode with respect to galactose, 10 nM hGALK1 and 35 μM ATP in an assay buffer was added to an array of six fragment (0–15 mM) or 12 compound (0–2 mM) concentrations against six galactose concentrations (0–250 μM), with a final reaction volume of 10 μL/well dispensed into 384-well assay plates (Greiner), and measured as described above. All reactions were performed in technical triplicates for two different preparations of hGALK1. Reaction rate, defined as total ATP consumed over the 1-h hGALK1 reaction, was determined using the following equation, where Lumreaction = mean value of measured luminescence of each reaction and Lum35 = measured luminescence with no galactose (i.e., luminescence of 35 μM ATP): [drawing 1]

[5] = target: T3, hMVK (Homo sapiens, UniProt Q03426); experiment: Kinase-Glo hMVK activity assay; format: biochemical; details: 1 mM compound
T3 construct: Constructs encoding full-length hGALK2 (Met1-Ala458) and hMVK (Met1-Leu396); His6-Strep-Strep tag followed by TEV protease cleavage site (N); made in house; host or cells: E. coli BL21(DE3)
Method: as §1

[6] = biological replicate N1, read-out: Kinase-Glo N1 IC50
[7] = biological replicate N2, read-out: Kinase-Glo N2 IC50
[8] = range over Kinase-Glo and Amplex Red assays
[9] = range over Kinase-Glo and Amplex Red assays, two biological replicates, read-out: IC50 values, range
[10] = biological replicate N1, read-out: Amplex Red N1 IC50
[11] = biological replicate N2, read-out: Amplex Red N2 IC50

T1 sequence (P51570 whole entry K252A/E253A, the tested form may be a part): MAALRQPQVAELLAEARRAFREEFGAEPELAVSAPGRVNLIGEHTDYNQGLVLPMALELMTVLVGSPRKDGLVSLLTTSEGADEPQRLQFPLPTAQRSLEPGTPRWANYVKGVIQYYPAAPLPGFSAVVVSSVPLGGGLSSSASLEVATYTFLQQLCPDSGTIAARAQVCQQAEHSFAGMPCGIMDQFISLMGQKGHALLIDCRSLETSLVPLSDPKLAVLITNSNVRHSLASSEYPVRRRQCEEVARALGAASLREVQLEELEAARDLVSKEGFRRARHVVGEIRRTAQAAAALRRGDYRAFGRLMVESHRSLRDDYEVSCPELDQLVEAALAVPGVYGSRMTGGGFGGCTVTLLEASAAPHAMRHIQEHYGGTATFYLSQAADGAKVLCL
T3 sequence (Q03426 whole entry): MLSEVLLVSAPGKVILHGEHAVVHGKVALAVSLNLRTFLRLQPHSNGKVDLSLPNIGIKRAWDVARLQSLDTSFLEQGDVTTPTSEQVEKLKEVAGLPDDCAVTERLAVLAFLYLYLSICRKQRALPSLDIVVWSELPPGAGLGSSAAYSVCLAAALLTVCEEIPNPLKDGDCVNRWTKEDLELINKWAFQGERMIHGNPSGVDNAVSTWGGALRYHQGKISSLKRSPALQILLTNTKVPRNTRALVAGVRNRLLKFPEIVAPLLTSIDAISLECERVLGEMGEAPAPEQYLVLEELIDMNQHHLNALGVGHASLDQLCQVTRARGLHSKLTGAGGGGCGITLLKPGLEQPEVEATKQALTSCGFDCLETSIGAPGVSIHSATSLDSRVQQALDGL

Structure (SMILES): O=C(CNc1cnc2cc(Cl)c(Cl)cc2n1)NC1CC1 [compound 11]
Kd [2]: ~100 µM and 89 µM
mode of inhibition with respect to galactose ([1]; 35 μM ATP): noncompetitive
Kmapp, substrate galactose, with ligand (+) [1]: 36.5 ± 2.1
Vmaxapp, substrate galactose, with ligand (+) [1]: 3.7 ± 0.4
inhibition at 2000 µM [1]: > 50%
IC50 [1, 6]: 209 µM
IC50 [1, 7]: 116 µM
Kinase-Glo LLEAT [1]: 0.19 kcal/mol
LLEAT (Astex ligand lipophilicity efficiency score), range [1, 8]: 0.19 to 0.22 kcal/mol
IC50 [1, 9]: 31 to 209 µM
mode of inhibition with respect to ATP ([3]; 50 μM galactose): noncompetitive
Kmapp, substrate ATP, with ligand (+) [3]: 36.5 ± 5.8
Vmaxapp, substrate ATP, with ligand (+) [3]: 11.1 ± 0.9
inhibition at 2000 µM [3]: > 50%
IC50 [3, 10]: 31 µM
IC50 [3, 11]: 65 µM
Amplex Red LLEAT [3]: 0.22 kcal/mol
inhibition at 1000 µM [4]: < 10%
inhibition at 1000 µM [5]: < 10%

Structure (SMILES): O=C(NCCN1CCCC1=O)Nc1ccccc1 [fragment 5]
change in hGALK1 activity, strictly standardized mean difference (SSMD) ([1]; 5 mM fragment): < 0.5

Structure (SMILES): COCCNC(=O)CNc1cnc2cc(Cl)c(Cl)cc2n1 [compound 12]
Kd [2]: ~100 µM and 97 µM
mode of inhibition with respect to galactose ([1]; 35 μM ATP): noncompetitive
Kmapp, substrate galactose, with ligand (+) [1]: 41.5 ± 12.4
Vmaxapp, substrate galactose, with ligand (+) [1]: 9.4 ± 1.1
inhibition at 2000 µM [1]: > 50%
IC50 [1, 6]: 198 µM
IC50 [1, 7]: 96 µM
Kinase-Glo LLEAT [1]: 0.23 kcal/mol
LLEAT (Astex ligand lipophilicity efficiency score), range [1, 8]: 0.23 to 0.27 kcal/mol
IC50 [1, 9]: 25 to 198 µM
mode of inhibition with respect to ATP ([3]; 50 μM galactose): noncompetitive
Kmapp, substrate ATP, with ligand (+) [3]: 40.4 ± 4.7
Vmaxapp, substrate ATP, with ligand (+) [3]: 11.8 ± 0.2
inhibition at 2000 µM [3]: > 50%
IC50 [3, 10]: 45 µM
IC50 [3, 11]: 25 µM
Amplex Red LLEAT [3]: 0.27 kcal/mol
inhibition at 1000 µM [4]: < 10%
inhibition at 1000 µM [5]: < 10%

Structure (SMILES): O=C1CCCC2=C1C1(CCCCC1)N=C(Nc1nc3ccccc3o1)N2 [T2, 2′-(benzo[d]oxazol-2-ylamino)-7′,8′-dihydro-1′H-spiro[cyclohexane-1,4′-quinazolin]-5′(6′H)-one, reference compound]
IC50 ([1]; 10 nM hGALK1, 100 μM galactose, 35 μM ATP, read-out: IC50): 17 µM
mode of inhibition with respect to galactose ([1]; 35 μM ATP): non-competitive
mode of inhibition with respect to ATP ([3]; 50 μM galactose): competitive

Structure (SMILES): O=C1CCCC2=C1C1(CCCC1)N=C(Nc1nc3ccccc3o1)N2 [T1, 2′-(benzo[d]oxazol-2-ylamino)-7′,8′-dihydro-1′H-spiro[cyclopentane-1,4′-quinazolin]-5′(6′H)-one, reference compound]
Kmapp, substrate galactose, with ligand (+) [1]: 32.9 ± 1.0
Vmaxapp, substrate galactose, with ligand (+) [1]: 4.1 ± 0.5
Kmapp, substrate ATP, with ligand (+) [3]: 63.5 ± 2.6
Vmaxapp, substrate ATP, with ligand (+) [3]: 27.9 ± 1.5

More lines, now with the values ahead:

change in hGALK1 activity, strictly standardized mean difference (SSMD) ([1]; 5 mM fragment): < 0.5
Structure (SMILES): O=C(OCc1ccc(Cl)cc1)c1cccnc1 [fragment 4]

change in hGALK1 activity, strictly standardized mean difference (SSMD) ([1]; 5 mM fragment): 0.80
Structure (SMILES): COc1ccc(Cl)cc1C(=O)NCC(C)C [fragment 10]

mode of inhibition with respect to galactose ([1]; 35 μM ATP): mixed
Kmapp, substrate galactose, with ligand (+) [1]: 184.2 ± 2.1
Vmaxapp, substrate galactose, with ligand (+) [1]: 5.1 ± 0.4
change in hGALK1 activity, strictly standardized mean difference (SSMD) ([1]; 5 mM fragment): 2.79
reduction of hGALK1 activity ([1]; 5 mM fragment, single-point): 24 ± 1.6%
decrease in Vmaxapp, galactose titration ([1]; fragment 0–15 mM, 35 μM ATP): 5 fold
increase in Kmapp, galactose titration ([1]; fragment 0–15 mM, 35 μM ATP): 6 fold
Kmapp, substrate ATP, with ligand (+) [3]: 32.1 ± 8.4
Vmaxapp, substrate ATP, with ligand (+) [3]: 4.2 ± 0.3
decrease in Vmaxapp, ATP titration ([3]; fragment 0–15 mM, 50 μM galactose): 4 fold
Structure (SMILES): O=C(Cc1ccc(Cl)cc1)Nc1ncccn1 [fragment 3]

change in hGALK1 activity, strictly standardized mean difference (SSMD) ([1]; 5 mM fragment): < 0.5
Structure (SMILES): Cc1ccc(C)c(OC(=O)c2ccncc2)c1 [fragment 7]

change in hGALK1 activity, strictly standardized mean difference (SSMD) ([1]; 5 mM fragment): < 0.5
Structure (SMILES): CCOC(=O)C1CCN(c2cnccn2)CC1 [fragment 1]

change in hGALK1 activity, strictly standardized mean difference (SSMD) ([1]; 5 mM fragment): < 0.5
Structure (SMILES): CS(=O)(=O)c1nccn1Cc1cscn1 [fragment 2]

Reference: PMC8056384 (ACS Chemical Biology, 2021)
